For this assay, the system named is PPAR γ. The format is cell-based.

This note sets out measurements from US8993624B2, “Method of preventing and treating inflammatory diseases and disorders with abscisic acid” (Virginia Tech Intellectual Properties, Inc., priority 2010, dated 2015).

As for `CC1=CC(=O)CC(C)(C)C1(O)/C=C/C(C)=C\C(=O)O` (single isomer, unassigned; (-)) [(−) ABA], the “concentration inducing maximal PPAR γ activation” value (1.25-10 μM tested, 20 hours) stood at 2.5 µM. Besides, the “PPAR γ activation (relative luciferase activity)” value (RAW 264.7, 20 hours) is listed as “activated PPAR γ to a similar degree”.
